Laboratory results: patent publication US20260200980A1, “METHODS AND COMPOSITIONS FOR TREATING OCULAR LESIONS” (priority 2022, published 2026)
Values joined by “and” are separate entries in the source; they are usually repeats but may differ in a detail not shown here. Identical values can stand only once. Like-named read-outs stand apart in the source and are kept apart here. Where no end group is shown, it is not given here.

What was measured:
male rabbit NaIO3 model = test: Sodium iodate (NaIO3) challenge study, duration of protection; assay type: in vivo; settings: for lesion area vs negative control: NaIO3 challenge Day 4
Method: Animals were anesthetized with isoflurane vapors to effect. […] No reflux was noted on the dosing record.
Animals were anesthetized with isoflurane vapors to effect. […] NaIO3 causes one or more regions of atrophy and depigmentation which creates a window into the choroid.
The resulting area was then measured.

visual function = test: ETDRS Vision (Letters Read), BCVA, in patients treated with ONL1204; assay type: in vivo, human
ocular lesion [1] = test: Lesion size in patients 24 weeks after intravitreal ONL1204; assay type: in vivo, human; settings: for % Change in Lesion Growth: week 24, study eye relative to untreated fellow eye; for % Change Based on Sqrt Transformation / Baseline Lesion Size / Week 24 Lesion Size: study eye; for % Change Based on Sqrt Transformation: baseline to week 24, square root of lesion area; for Baseline Lesion Size: baseline prior to treatment
Method: The primary endpoints were the safety profile associated with single and multiple dosing in this study, including: adverse event reporting, clinical evaluations including lesion size and clinical evaluation.
Baseline best lesion size (area in square millimeters) was measured prior to treatment with ONL1204. […] The following doses were evaluated: 50 ug, 100 ug, and 200 ug (micrograms).
(§1) Table 1A and 1B show reduced lesion sizes associated with treated eyes at week 24. Percent (%) change is measured relative the untreated fellow eye. […] Table 3A, 3B and 3C show reduced lesion sizes associated with treated eyes (Tables 3A and 3C) in addition to associated historical lesion growth (Tables 3A and 3B). […] For “% Change Based on Sqrt Transformation” and similar measures, the square root of the lesion area was determined and the % difference between the starting value and the last timepoint was calculated. Percent (%) change is measured relative the untreated fellow eye.

[2] = rabbit, in vivo
Method: Pharmacokinetic analyses were performed on the vitreous humor concentration data.
Seven animals received a repeat IVT dose at 2 mg/mL (0.1 mg/eye) on Day 90.
Vitreous humor, retina, and choroid were collected on days 1, 7, 14, 28, 42, 61, 90, 97, 151, and 168. Eyes were enucleated, snap frozen using liquid nitrogen, and kept on dry ice or frozen at −80° C. until dissected for collection of aqueous humor, vitreous humor, retina, choroid, iris-ciliary body (ICB), and lens.
To homogenize ocular tissue samples, weighed amounts of control bovine vitreous humor, retina, and choroid were homogenized in USA scientific impact resistant microtubes containing 2.8 mm ceramic beads. Unknown rabbit vitreous humor, retina, and choroid samples were homogenized in USA scientific impact resistant microtubes containing 2.8 mm ceramic beads. […]

[3] = minipig, in vivo
Method: Seven animals received a repeat IVT dose at 2 mg/mL (0.1 mg/eye) on Day 90. […] Vitreous humor, retina, and choroid were collected on days 1, 7, 14, 28, and 88.

ocular lesion [4] = test: Lesion size in historical (V1-V3) and treatment phase (V3-V9), 2 injections of ONL1204 3 months apart; assay type: in vivo, human; settings: for % Change Nat His Phase (Using Sqrt Transformation): V1 to V3, 24 weeks before treatment; for % Change Tx Phase (Using Sqrt Transformation) / V1 Lesion Size / V3 Lesion Size / V9 Lesion Size: study eye; for % Change Tx Phase (Using Sqrt Transformation): V3 to V9, 24 weeks; for % Change Tx Phase (Using Sqrt Transformation) / V9 Lesion Size: 2 injections 3 months apart; for V1 Lesion Size: visit 1, start of historical phase, before treatment; for V3 Lesion Size: visit 3, end of historical phase, start of treatment; for V9 Lesion Size: visit 9, 24 weeks after first treatment
Method: as §1

Question: What does the source list for HHIYLGAVNYIY-NH2 [ONL1204]?
Answer: lesion area vs negative control (male rabbit NaIO3 model; 25 ug per eye IVT Day 0): significantly lower than negative control; lesion area vs negative control (male rabbit NaIO3 model; 100 ug per eye IVT Day 0): significantly lower than negative control; lesion size vs negative controls and 25 ug group (male rabbit NaIO3 model; 100 ug per eye IVT Day 0, NaIO3 challenge Day 14): significantly smaller lesion size; lesion size vs negative control animals and 25 ug group (male rabbit NaIO3 model; 100 ug per eye IVT Day 0, NaIO3 challenge Day 28): significantly smaller lesion size; mean lesion size (male rabbit NaIO3 model; across challenge time points): substantive reduction; visual function (e.g., BCVA as measured by letters read) (visual function; eyes having a patchy lesion): improved visual function; ETDRS Vision (Letters Read) Week 1 (visual function; study eye, 50 μg): 42 Letters Read and 33 Letters Read; ETDRS Vision (Letters Read) Week 2 (visual function; study eye, 50 μg): 34 Letters Read and 33 Letters Read; ETDRS Vision (Letters Read) Week 4 (visual function; study eye, 50 μg): 36 Letters Read and 33 Letters Read; ETDRS Vision (Letters Read) Week 12 (visual function; study eye, 50 μg): 36 Letters Read; ETDRS Vision (Letters Read) Week 24 (visual function; study eye, 50 μg): 42 Letters Read and 35 Letters Read; ETDRS Vision (Letters Read) Screening/Baseline (visual function; study eye, 50 μg, before treatment): 23 Letters Read and 26 Letters Read; ETDRS Vision (Letters Read) Week 1 (visual function; study eye, 100 μg): 13 Letters Read; ETDRS Vision (Letters Read) Week 2 (visual function; study eye, 100 μg): 13 Letters Read and 19 Letters Read; ETDRS Vision (Letters Read) Week 12 (visual function; study eye, 100 μg): 15 Letters Read and 27 Letters Read; ETDRS Vision (Letters Read) Week 24 (visual function; study eye, 100 μg): 15 Letters Read and 24 Letters Read; ETDRS Vision (Letters Read) Screening/Baseline (visual function; study eye, 100 μg, before treatment): 14 Letters Read and 11 Letters Read; ETDRS Vision (Letters Read) Week 1 (visual function; study eye, 200 μg): 29 Letters Read and 31 Letters Read; ETDRS Vision (Letters Read) Week 2 (visual function; study eye, 200 μg): 32 Letters Read and 30 Letters Read; ETDRS Vision (Letters Read) Week 4 (visual function; study eye, 200 μg): 30 Letters Read and 38 Letters Read; ETDRS Vision (Letters Read) Week 12 (visual function; study eye, 200 μg): 28 Letters Read and 41 Letters Read; ETDRS Vision (Letters Read) Week 24 (visual function; study eye, 200 μg): 26 Letters Read and 40 Letters Read; ETDRS Vision (Letters Read) Baseline (visual function; study eye, 200 μg, baseline visit, on a different day from screening, before treatment): 25 Letters Read; ETDRS Vision (Letters Read) Screening/Baseline (visual function; study eye, 200 μg, before treatment): 39 Letters Read; ETDRS Vision (Letters Read) Screening (visual function; study eye, 200 μg, screening visit, on a different day from baseline, before treatment): 19 Letters Read; % Change in Lesion Growth (ocular lesion [1]; 50 ug): −45%; % Change in Lesion Growth (ocular lesion [1]; 100 ug): −27% and −32%; % Change in Lesion Growth (ocular lesion [1]; 200 ug): −57% and −53%; lesion size growth (ocular lesion [1]; all patients, doses 50, 100 and 200 ug, compared to untreated fellow eye): reduction in lesion size growth; % Change Based on Sqrt Transformation (ocular lesion [1]; 50 ug): 4.14% and 6.95%; Baseline Lesion Size (ocular lesion [1]; 100 ug intravitreal): 20.1 mm^2 and 24.16 mm^2; Week 24 Lesion Size (ocular lesion [1]; 100 ug intravitreal): 21.2 mm2 and 27.61 mm2; % Change Based on Sqrt Transformation (ocular lesion [1]; 100 ug): 2.70% and 6.90%; Baseline Lesion Size (ocular lesion [1]; 200 ug intravitreal): 9.37 mm^2 and 9.09 mm^2; Week 24 Lesion Size (ocular lesion [1]; 200 ug intravitreal): 9.81 mm2 and 9.78 mm2; % Change Based on Sqrt Transformation (ocular lesion [1]; 200 ug): 2.32% and 3.73%; detection in retinal tissue as well as the vitreous humor [2]: detected; detection in the vitreous humor [2]: detected; detection in the vitreous humor [3]: detected; % Change Nat His Phase (Using Sqrt Transformation) (ocular lesion [4]; study eye later given 50 ug): 5.31% and 1.38%; % Change Nat His Phase (Using Sqrt Transformation) (ocular lesion [4]; study eye later given 100 ug): 2.97% and 3.20%; % Change Tx Phase (Using Sqrt Transformation) (ocular lesion [4]; 50 ug): 3.74% and 0.05%; V1 Lesion Size (ocular lesion [4]; 50 ug): 12.08 mm^2 and 18.41 mm^2; V3 Lesion Size (ocular lesion [4]; 50 ug): 13.4 mm^2 and 18.92 mm^2; V9 Lesion Size (ocular lesion [4]; 50 ug): 14.42 mm^2 and 18.94 mm^2; % Change Tx Phase (Using Sqrt Transformation) (ocular lesion [4]; 100 ug): 3.37% and 1.39%; V1 Lesion Size (ocular lesion [4]; 100 ug): 5.64 mm^2 and 7.7 mm^2; V3 Lesion Size (ocular lesion [4]; 100 ug): 5.98 mm^2 and 8.2 mm^2; V9 Lesion Size (ocular lesion [4]; 100 ug): 6.39 mm^2 and 8.43 mm^2
